What all share (type): biochemical, Streptococcus thermophilus
In one experiment the test system is PepTSt Asn156Ala (N156A). Briefly: proton-driven [3H]-di-Ala uptake competition in reconstituted liposomes, N156A variant. From the text: (§1) PepTSt was reconstituted into Escherichia coli total lipids with egg PC liposomes and assayed using a proton-driven system as previously described.
The next experiment concerns PepTSt Trp427Phe (W427F). Kind of experiment: proton-driven [3H]-di-Ala uptake competition in reconstituted liposomes, W427F variant.
Excerpt: as §1

For the next experiment, the system named is PepTSt Tyr29Phe (Y29F). Kind of experiment: proton-driven [3H]-di-Ala uptake competition in reconstituted liposomes, Y29F variant.
Excerpt: as §1

The subject of another experiment is PepTSt (WT). Kind of experiment: proton-driven [3H]-di-Ala uptake competition in reconstituted liposomes, WT transporter. As to the method: as §1
Figure S2. Substrate specificity profile for PepTSt.
‘% residual transport ’ refers to competition for 3H-Ala-Ala uptake in the presence of 10 mM of the cold peptides indicated on the X-axis as a percentage of ‘no competitor’ peptide in a reconstituted proton driven uptake assay.Error bars indicate the standard deviation from three independent

By IC50 is commonly meant the concentration that gives 50% inhibition. A lower IC50 goes with inhibition by little substance.

On to L-Ala-L-Ala [Ala-Ala], for which the IC50 in the experiment on PepTSt Asn156Ala (N156A) was determined as 86 µM; in the experiment with PepTSt Trp427Phe (W427F), 35 µM; in the experiment on PepTSt Tyr29Phe (Y29F), 40 µM; in the experiment with PepTSt (WT) (WT PepTSt in liposomes, proton-driven uptake) it was 37 µM.
Take tri-glycine: the “% residual transport (competition for 3H-Ala-Ala uptake), result in words” value in the experiment on PepTSt (WT) (10 mM cold peptide, reconstituted proton driven uptake assay, WT PepTSt) was “not able to compete effectively”.

Source of the values: article PMC4149780, “Structural basis for polyspecificity in the POT family of proton-coupled oligopeptide transporters” (EMBO Reports, 2014).
